The subject of assay [1] is rabbit corneal epithelial cell. Nature of the assay: Test Example 2: increase in cell number, cultured rabbit corneal epithelial cell, 120 hours (Cell Counting Kit-8). Format: cell-based. The note with it: no addition group = 100%, average ± standard deviation, N = 5. As for the experimental part:
A male rabbit (Japanese white, weight: about 1.5 kg, […] LABES Co., Ltd.) was used. The experimental animal was used according to the International Guiding Principles for Biomedical Research Involving Animals.
A rabbit corneal epithelial cell was prepared using the same process as that of (Test example 1).
As the test substance, the following compounds were used. • PPARδ agonist: L-165041 (Sigma-Aldrich) and GW-501516 (Alexis)
For studying the effect of promoting cell proliferation by each test substance, a culture medium prepared by removing a mouse-derived epithelial growth factor (mEGF) attached to RCGM2, from RCGM2, was used as a basal medium, while as a positive control for confirming the effect of promoting cell proliferation, a medium with an mEGF added thereto (basal medium+10 ng/mL mEGF) was used according to instructions of an RCGM2 preparation protocol.
Collagen treatment of the culture dish was performed using the same process as that of (Test Example1).
In the test, a rabbit corneal epithelial cell which had been cultured to subconfluent in a culture dish having a diameter of 10 cm was used. After the culture medium was removed, the bottom of the culture dish was washed two times using D-PBS, to this was added 1 mL of trypsin-EDTA, this was incubated at 37° C. for 5 minutes and thereby, the cell was peeled from the bottom of the culture dish. After incubation, 9 mL of MEM containing 10% FBS was added to the culture dish to stop the enzymatic reaction, and this was subjected to centrifugation at room temperature and 1,500 rpm for 5 minutes to obtain a corneal epithelial cell layer. To the resulting cell was added an appropriate amount of RCGM2 to a cell concentration of 1×10^5 cells/mL to suspend the cell. Each 64 μL of this cell suspension was dispensed in each well at the cell number per bottom area (0.32 cm^2) of the collagen-treated 96-well culture dish for tissue culture of […]. […] After 24 hours from cell seeding, the culture medium was discarded, and each 100 μL of the following culture media were freshly dispensed into each well of the culture dish. • [1] Only basal medium (no addition group) • [2] Basal medium+mEGF (final concentration: 10 ng/mL; positive control group) • [3] Basal medium+L-165041 (final concentration: 0.1 μM and 1 μM) • [4] Basal medium+GW-501516 (final concentration: 0.01 μM and 0.1 μM)
The culture supernatant of each well was removed every 48 hours from exchange of the culture medium containing a test substance, and each 100 μL of the freshly prepared culture medium was dispensed into each well.

Another assay relates to corneal epithelial wound. As to the kind of experiment: Test Example 9: healing of corneal epithelial wound after corneal epithelium scraping, eyedrop. The note with it: 0.05% eyedrop; for ratio (%) of remaining corneal epithelial defect: initial value = 100%, average ± standard deviation, N = 4. Format: in vivo, rabbit. An excerpt:
A male rabbit (Japanese white, […] LABES Co., Ltd.) was used. The experimental animal was used according to the International Guiding Principles for Biomedical Research Involving Animals.
As the test substance, a PPARδ agonist GW-501516 (Alexis Biochemicals) was used. A solution in which GW-501516 was suspended in the following vehicle to 0.05% was used as an eyedrop solution.
As a control for the test substance administration group, the aforementioned vehicle administration group containing no drug was set.
After the animal was subjected to systemic anesthesia by intramuscular injection (0.9 mL/kg) with a selactar (2% xylazine: Bayer): ketalar (5% ketamine: Sankyo)=0.5:1 mixed solution, an oxybuprocaine hydrochloride eyedrop solution (Benoxil eyedrop solution 0.4%; Santen Pharmaceutical Co., Ltd.) was administered, and eyeballs were exposed. A mark having a diameter of 6 mm was stamped on a corneal epithelium at a corneal central part using a trephine having a diameter of 6 mm, and a whole corneal epithelial layer within a stamped circumference was scraped using a handy rooter under a stereomicroscope. After scraping, a corneal surface was washed using physiological saline (Otsuka Pharmaceutical Factory Inc.), and eyeballs were returned into the orbit to complete the corneal epithelial scraping treatment.
A test substance eyedrop solution or an eyedrop solution vehicle was administered to treated eyes at 50 μL per once using a micropipette two times a day on the corneal epithelium scraping day and, on the following day and thereafter, four times a day until completion of the test.
At the time point at which corneal epithelium scraping of both eyes of all individuals was completed was defined as the test initiation time (0 hour) and, by quantitating the corneal epithelial defect area at 24, 38 and 48 hours thereafter, restoration of a corneal epithelium was assessed. That is, at each time point, 10 μL of a 0.1% fluorescein sodium (Wako Pure Chemical Industries, Ltd.) solution was administered to treated eyes, a photograph of an anterior ocular segment of the animal was immediately taken using a slit lamp equipped with a cobalt filter and thereby, a stained corneal epithelial defect region was recorded. A developed photograph was stored as a digital image in a computer, and an area of the stained corneal epithelial defect part was measured using image analysis software (Image-Pro Plus).
Regarding the corneal epithelial defect area measured at each time point, a value for each individual was calculated, assuming that its initial value was 100%, and this was adopted as a ratio of the remaining corneal epithelial defect.

Assay [2] concerns normal human corneal epithelial cell. As to the kind of experiment: Test Example 6: increase in cell number, normal human corneal epithelial cell, 48 hours (Cell Counting Kit-8). The note with it: 10^−8 M, no addition group = 100%, average ± standard deviation, N = 4 to 5. The format is cell-based. The procedure:
(§1) A normal human corneal epithelial cell (KURABO) was used.
As the test substance, the following compounds were used. • PPARδ Agonist: GW-501516 (Alexis), GW-0742 (Sigma-Aldrich)
Only basal medium (no addition group) • [2] Basal medium+GW-501516 (final concentration: 0.01 μM) • [3] Basal medium+GW-0742 (final concentration: 0.01 μM)

Assay [3] has the same test system. Nature of the assay: Test Example 5: increase in cell number, normal human corneal epithelial cell, 24 hours (Cell Counting Kit-8). The format is cell-based. The note with it: no addition group = 100%, average ± standard deviation, N = 3 to 4. As for the experimental part:
as §1
As the test substance, the following compounds were used. PPARδ agonist: L-165041 (Sigma-Aldrich), GW-501516 (Alexis)
In addition, as a positive control for confirming the cell proliferation promoting effect, a medium in which a mouse-derived epithelial growth factor (mEGF) contained in an HCGS proliferation additive set (KURABO) was added to a basal medium (basal medium+1 ng/mL mEGF) was used.
This cell suspension was seeded on a fibronectin-coated multiwell plate (24 well, BECTON DICKINSON) so that the cell number became 2×10^4 cells/500 μL/well (since the bottom area is 2 cm^2, the number is 1×10^4 cells/cm^2).
Further, 24 hours thereafter, the culture medium was exchanged with each 400 μL of the following culture media. • [1] Only basal medium (no addition group) • [2] Basal medium+mEGF (final concentration: 1 ng/mL; positive control group) • [3] Basal medium+L-165041 (final concentration: 0.01 μM and 0.1 μM) • [4] Basal medium+GW-501516 (final concentration: 0.001 μM and 0.01 μM)

In assay [4] the test system is monkey meibomian gland epithelial cell. As to the kind of experiment: Test Example 8: increase in number of monkey meibomian gland epithelial cells (Cell Counting Kit-8). The format is cell-based. To be noted: 3 x 48 hours; for Cell proliferation (%): no addition group = 100%, average ± standard deviation, N = 5. An excerpt: For studying the effect of promoting cell proliferation by each test substance, a culture medium prepared by removing the supplement attached to DK-SFM, from DK-SFM, was used as a basal medium, while as a positive control for confirming the cell proliferation promoting effect, a culture medium with the supplement added thereto (basal medium+supplement) was used according to instructions of an DK-SFM preparation protocol. […] In the test, a monkey meibomian gland epithelial cell which had been cultured to subconfluent, suspended in a cell banker (Nippon Zenyaku Kogyo Co., Ltd.), and cryopreserved in liquid nitrogen was used. The cell which had been cryopreserved was thawed, and transferred to a 50 mL centrifuge tube and a 10-fold amount of DK-SFM was added thereto. […] Each 64 μL of this cell suspension was dispensed into each well so that the cell number per bottom area (0.32 cm^2) of the collagen-treated 96-well culture dish for tissue culture became 4×10^4 cells/cm^2. […] After 48 hours from initial culture medium exchange, the culture medium was exchanged with a freshly prepared culture medium of each of [1] to [4]. Further, after 48 hours therefrom, the culture medium was exchanged again with a freshly prepared culture medium of each of [1] to [4].

The source of these data is patent US9096538B2, “Pharmaceutical comprising PPAR agonist” (Senju Pharmaceutical Co., Ltd., priority 2005, dated 2015).

On to `Cc1cc(SCc2sc(-c3ccc(C(F)(F)F)cc3)nc2C)ccc1OCC(=O)O` [GW-501516, (2-methyl-4-(((4-methyl-2-(4-(trifluoromethyl)phenyl)-5-thiazolyl)methyl)thio)phenoxy)acetic acid], for which the “Cell proliferation (%)” value in assay [1] (10^−7 M) came to 213.2 ± 34.0%; in assay [1] (10^−8 M), 223.9 ± 24.1%; in assay [2], 129.2 ± 7.5%; in assay [3] (10^−8 M), 125.7 ± 2.3%; in assay [3] (10^−9 M), 133.1 ± 3.7%; in assay [4] (10^−7 M), 156.1 ± 18.9%. In addition, in assay [4] (10^−8 M), the “Cell proliferation (%)” value is 133.3 ± 7.4%. For the same compound, the “ratio (%) of remaining corneal epithelial defect” value was determined as 100.0 ± 6.5% in the assay on corneal epithelial wound (0 hour (initial value)); 25.3 ± 3.1 % in the assay on corneal epithelial wound (24 hours later, 50 μL); 0.2 ± 0.2 % in the assay with corneal epithelial wound (38 hours later, 50 μL). Moreover, the “ratio of the corneal epithelial defect compared to vehicle (in words)” value with corneal epithelial wound (24 hours and 38 hours after corneal epithelium scraping) is given as “significantly decreased”. The “corneal epithelial defect (in words)” value with corneal epithelial wound (after 48 hours, all individuals (vehicle group too)) is listed as “disappeared in all individuals”. For the same compound, the “cell proliferation compared to the no addition group (in words)” value in assay [4] (10^−7 M) is “significantly higher than in the no addition group”.
